Where two headings read alike, the source gives them in different places. Some results are limits rather than exact numbers.

Series [1] has as its target Beta Secretase enzyme (BACE) (Homo sapiens, UniProt P56817). Description: In vitro enzymatic BACE FRET (fluorescence resonance energy transfer) assay.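 Further: fluorescence read after 1 h with 50 nM quenched peptide substrate spanning the BACE cleavage site, in pH 4.2 acetate buffer containing 10% DMSO and nonionic detergent.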 Format: biochemical.
The target in series [2] is CYP2D6 (Homo sapiens, UniProt P10635). Description: CYP2D6 inhibition assay (bufuralol, pooled human liver microsomes). In general terms: Microsomes from liver hold many membrane-bound enzymes, among them those of drug oxidation.
Chain of CYP2D6 (P10635 whole entry): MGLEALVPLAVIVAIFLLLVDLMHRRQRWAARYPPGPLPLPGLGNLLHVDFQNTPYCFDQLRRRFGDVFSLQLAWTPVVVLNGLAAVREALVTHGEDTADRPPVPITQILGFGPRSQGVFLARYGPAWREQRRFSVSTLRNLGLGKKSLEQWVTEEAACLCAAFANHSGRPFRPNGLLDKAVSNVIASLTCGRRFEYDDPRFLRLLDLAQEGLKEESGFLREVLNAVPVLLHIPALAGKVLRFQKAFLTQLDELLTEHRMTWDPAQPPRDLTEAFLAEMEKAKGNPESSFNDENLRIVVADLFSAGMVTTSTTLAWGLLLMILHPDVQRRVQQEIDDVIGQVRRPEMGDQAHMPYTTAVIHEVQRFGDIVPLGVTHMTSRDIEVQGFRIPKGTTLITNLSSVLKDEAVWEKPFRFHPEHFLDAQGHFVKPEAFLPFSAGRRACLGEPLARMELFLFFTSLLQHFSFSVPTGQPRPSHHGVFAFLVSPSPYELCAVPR
The target of series [3] is CYP3A4 (CYP3A) (Homo sapiens, UniProt P08684). Description: in vitro. The following applies: microsomes, pH 7.4.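 Further: inhibition of CYP3A-mediated 1-hydroxymidazolam formation after 10 min incubation with NADPH, quantified by HPLC MS relative to metabolite produced without test compound.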
Chain of CYP3A4 (CYP3A) (P08684 2-503): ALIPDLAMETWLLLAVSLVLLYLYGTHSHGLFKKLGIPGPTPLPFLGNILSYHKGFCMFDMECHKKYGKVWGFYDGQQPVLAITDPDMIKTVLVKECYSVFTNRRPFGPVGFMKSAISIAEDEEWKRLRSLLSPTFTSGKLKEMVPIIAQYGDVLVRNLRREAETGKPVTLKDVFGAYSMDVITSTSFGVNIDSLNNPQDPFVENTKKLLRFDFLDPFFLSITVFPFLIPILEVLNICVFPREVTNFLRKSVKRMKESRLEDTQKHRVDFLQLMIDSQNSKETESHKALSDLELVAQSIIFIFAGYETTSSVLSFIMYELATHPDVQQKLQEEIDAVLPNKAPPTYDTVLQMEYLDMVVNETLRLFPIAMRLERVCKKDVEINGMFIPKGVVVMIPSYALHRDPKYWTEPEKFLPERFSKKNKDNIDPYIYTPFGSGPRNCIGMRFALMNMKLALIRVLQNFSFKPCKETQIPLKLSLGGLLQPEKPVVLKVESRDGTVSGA
The test system of series [4] is Aβ40 in conditioned medium of cells stably expressing Amyloid Precursor Protein (APP). Description: In vitro BACE cell-based assay (Aβ40 in conditioned medium, sandwich ELISA).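 Further: compounds added as a dilution series, secreted peptide quantified by europium time-resolved fluorescence readout, potency fitted from percent of control versus compound concentration.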 The following applies: Homo sapiens. A general note: In an ELISA, binding on a coated surface is turned into a signal by an enzyme label.
A short description of series [5]: Microsomal stability assay, human liver microsomes.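 Further: pooled human liver microsomes at 0.25 mg/mL with 1 µM compound and NADPH at 37 °C, pH 7.4, for 30 min, unchanged parent quantified by LC-MS/MS against the 0 min sample.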
The nature of series [6]: Microsomal stability assay, rat liver microsomes.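 Further: rat liver microsomes (0.25 mg/mL) with about 1 µM compound plus 1 mM NADPH, pH 7.4, 37 °C for 30 min, parent left measured by LC-MS/MS against 0 min.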
[7] abbreviates: BACE enzyme assay IC50, read-out: BACE1 FRET assay.
The mark [8] stands for this setting: 2D6 IC50 (uM), CYP2D6 inhibition.
[9] abbreviates: HEK293, HEK cell-based assay IC50, read-out: HEK cell assay.
The mark [10] stands for this setting: BACE enzyme assay, read-out: BACE1 FRET assay.
[11] abbreviates: 2D6 IC50 (uM), CYP enzyme inhibition.
[12] abbreviates: HEK293, HEK cells, read-out: HEK cell assay.

Chain of Beta Secretase enzyme (BACE) (P56817 46-501): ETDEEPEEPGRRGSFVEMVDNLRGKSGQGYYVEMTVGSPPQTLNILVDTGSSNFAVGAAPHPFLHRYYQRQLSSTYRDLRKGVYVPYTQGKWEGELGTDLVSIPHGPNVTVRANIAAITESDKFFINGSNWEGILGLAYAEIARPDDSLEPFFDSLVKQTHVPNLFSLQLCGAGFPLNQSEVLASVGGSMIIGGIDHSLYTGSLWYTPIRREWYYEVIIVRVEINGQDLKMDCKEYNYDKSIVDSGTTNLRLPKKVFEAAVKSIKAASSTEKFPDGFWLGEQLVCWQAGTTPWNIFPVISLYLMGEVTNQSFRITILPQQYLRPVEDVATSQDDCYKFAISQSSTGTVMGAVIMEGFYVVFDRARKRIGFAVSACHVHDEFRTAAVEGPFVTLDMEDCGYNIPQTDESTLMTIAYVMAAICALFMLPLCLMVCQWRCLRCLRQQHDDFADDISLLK

For `CO[C@H](C)C(=O)N[C@@H](Cc1ccc2c(c1)OCO2)[C@H](O)CN[C@H]1CC2(CCC2)Cc2sc(CC(C)(C)C)cc21` [compound 455], the IC50 in series [1] (Table 2, read-out: BACE1 FRET assay) worked out at 0.049 µM; in series [2] (2D6 IC50, CYP enzyme inhibition) it was 5.5 µM; in series [3] it was 2600 nM; in series [4] (HEK293, Table 2, HEK cells, read-out: HEK cell assay) it was 0.231 µM. Moreover, the HLM in series [5] (human liver microsomal data) stood at 211 µL/min/mg. Also, the RLM in series [6] (rat liver microsomal data) stood at 201 µL/min/mg.
Turning to `CO[C@H](C)C(=O)N[C@@H](Cc1ccc(-c2nccs2)cc1)[C@H](O)CN[C@H]1CC2(CCC2)Oc2ncc(CC(C)(C)C)cc21` [compound 735], the IC50 was 0.049 µM in series [1] (setting [7]), 1 µM in series [2] (setting [8]), ≤ 30 nM in series [3] and 0.06 µM in series [4] (setting [9]). Besides, the “HLM” value in series [5] (human liver microsomes) is 78 µL/min/mg. Also, the “RLM” value in series [6] (rat liver microsomes) was 80 µL/min/mg.
`COCC(=O)N[C@@H](Cc1cc(F)cc(-c2nccs2)c1)[C@H](O)CN[C@H]1CC2(CCC2)Oc2ncc(CC(C)C)cc21` [Example 695, N-((1S,2R)-1-(3-fluoro-5-(1,3-thiazol-2-yl)benzyl)-2-hydroxy-3-(((4′S)-6′-(2-methylpropyl)-3′,4′-dihydrospiro[cyclobutane-1,2′-pyrano[2,3-b]pyridin]-4′-yl)amino)propyl)-2-methoxyacetamide]: the IC50 in series [1] (setting [7]) stood at 0.004 µM; in series [2] (setting [8]) it was 0.5 µM; in series [3], 100 nM; in series [4] (setting [9]), 0.011 µM. For the same molecule, in series [5] (human liver microsomes), the “HLM” value was 77 µL/min/mg. The “RLM” value in series [6] (rat liver microsomes) is 64 µL/min/mg.
Consider `COCC(=O)N[C@@H](Cc1cc(F)cc(F)c1)[C@H](O)CN[C@H]1CC2(CCC2)Oc2c1cc(CC(C)(C)C)nc2Nc1ccncc1` [compound 571], for which the IC50 in series [1] (setting [10]) is 0.053 µM; in series [2] (setting [11]), 2.3 µM; in series [3] it was 100 nM; in series [4] (setting [12]), 0.003 µM. The “HLM” value in series [5] (human liver microsomal data) is 142 µL/min/mg. Also, the “RLM” value in series [6] (rat liver microsomal data) came to 193 µL/min/mg.
`COCC(=O)N[C@@H](Cc1cccc(F)c1)[C@H](O)CN[C@H]1CC2(CCC2)Oc2c1cc(CC(C)C)cc2-n1ccnc1` [compound 520]: the IC50 in series [1] (setting [10]) was determined as 0.018 µM; in series [2] (setting [11]), 0.9 µM; in series [3], 100 nM; in series [4] (setting [12]), 0.009 µM. In addition, the “HLM” value in series [5] (human liver microsomal data) was 32 µL/min/mg. Moreover, in series [6] (rat liver microsomal data), the “RLM” value was 144 µL/min/mg.
In the case of `COCC(=O)N[C@@H](Cc1cccc(F)c1)[C@H](O)CN[C@H]1CC2(CCC2)Oc2c1cc([C@@H](O)C(C)(C)C)cc2-n1ccnc1` [compound 593], the IC50 worked out at 1.59 µM in series [1] (read-out: BACE1 FRET assay (IC50)); 1 µM in series [2] (2D6 IC50, CYP2D6 inhibition); 100 nM in series [3]; 0.312 µM in series [4] (HEK293, HEK cells, read-out: HEK cell assay (IC50)). The same molecule yielded an HLM in series [5] (human liver microsomes) of 14 µL/min/mg. Further, the RLM in series [6] (rat liver microsomes) amounted to 29 µL/min/mg.
Turning to `CO[C@H](C)C(=O)N[C@@H](Cc1cccc(F)c1)[C@H](O)CN[C@H]1CC2(CCC2)Oc2c1cc(CC(C)(C)C)cc2-n1ccnc1` [compound 522], the IC50 in series [1] (setting [10]) was found to be 0.044 µM; in series [2] (setting [11]) it was 3.1 µM; in series [3], 100 nM; in series [4] (setting [12]), 0.013 µM. Moreover, the “HLM” value in series [5] (human liver microsomal data) stood at 43 µL/min/mg. The “RLM” value in series [6] (rat liver microsomal data) was 141 µL/min/mg.
`C#Cc1cccc(C[C@H](NC(=O)COC)[C@H](O)CN[C@H]2CC3(CCC3)Oc3ncc(CC)cc32)c1` [compound 842]: the IC50 in series [1] (BACE enzyme assay, IC50's in uM, read-out: BACE1 FRET assay) amounted to 0.026 µM; in series [2] (setting [11]), 4.9 µM; in series [3], 200 nM; in series [4] (HEK293, HEK cell-based assay, IC50's in uM, read-out: HEK cell assay) it was 0.065 µM. Also, the “HLM” value in series [5] (human liver microsomal data) stood at 55 µL/min/mg. Besides, the “RLM” value in series [6] (rat liver microsomal data) came out at 57 µL/min/mg.

These data come from patent publication US8163909B2, “Substituted hydroxyethyl amine compounds as beta-secretase modulators and methods of use” (Amgen Inc., priority 2007, dated 2012).
